{
  "source": "paper PMC10325900",
  "about": "“A conserved motif in the disordered linker of human MLH1 is vital for DNA mismatch repair and its function is diminished by a cancer family mutation” (Nucleic Acids Research, 2023)",
  "molecular_target": "T1, MLH1-ΔConMot-PMS2 (Homo sapiens, UniProt P40692+P54278, DEL377-396)",
  "T1 construct": "The pcDNA3 expression vector containing the entire open reading frame of human MLH1; expressed in transfected cells; host or cells: HEK293T (MLH1-deficient), transiently co-transfected",
  "T1 sequence (P40692 with tags, fused parts or gaps DEL377-396)": "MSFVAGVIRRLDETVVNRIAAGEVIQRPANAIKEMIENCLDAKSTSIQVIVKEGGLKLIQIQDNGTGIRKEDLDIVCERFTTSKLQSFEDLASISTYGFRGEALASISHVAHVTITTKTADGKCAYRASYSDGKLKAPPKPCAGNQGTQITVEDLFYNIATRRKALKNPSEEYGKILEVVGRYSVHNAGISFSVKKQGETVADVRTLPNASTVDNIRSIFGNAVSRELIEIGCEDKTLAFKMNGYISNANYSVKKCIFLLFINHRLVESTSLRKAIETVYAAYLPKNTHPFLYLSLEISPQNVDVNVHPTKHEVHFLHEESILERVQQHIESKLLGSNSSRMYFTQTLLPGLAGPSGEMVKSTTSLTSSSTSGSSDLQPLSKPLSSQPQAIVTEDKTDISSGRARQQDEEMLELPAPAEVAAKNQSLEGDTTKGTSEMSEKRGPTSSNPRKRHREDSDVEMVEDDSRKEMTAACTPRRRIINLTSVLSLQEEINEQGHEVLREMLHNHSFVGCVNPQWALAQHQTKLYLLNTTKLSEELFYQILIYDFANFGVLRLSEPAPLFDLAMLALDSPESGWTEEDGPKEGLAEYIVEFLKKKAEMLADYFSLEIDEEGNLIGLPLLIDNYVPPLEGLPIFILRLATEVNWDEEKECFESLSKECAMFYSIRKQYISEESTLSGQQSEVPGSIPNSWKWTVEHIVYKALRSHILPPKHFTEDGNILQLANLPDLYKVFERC",
  "T1 sequence (P54278 1-862 partner)": "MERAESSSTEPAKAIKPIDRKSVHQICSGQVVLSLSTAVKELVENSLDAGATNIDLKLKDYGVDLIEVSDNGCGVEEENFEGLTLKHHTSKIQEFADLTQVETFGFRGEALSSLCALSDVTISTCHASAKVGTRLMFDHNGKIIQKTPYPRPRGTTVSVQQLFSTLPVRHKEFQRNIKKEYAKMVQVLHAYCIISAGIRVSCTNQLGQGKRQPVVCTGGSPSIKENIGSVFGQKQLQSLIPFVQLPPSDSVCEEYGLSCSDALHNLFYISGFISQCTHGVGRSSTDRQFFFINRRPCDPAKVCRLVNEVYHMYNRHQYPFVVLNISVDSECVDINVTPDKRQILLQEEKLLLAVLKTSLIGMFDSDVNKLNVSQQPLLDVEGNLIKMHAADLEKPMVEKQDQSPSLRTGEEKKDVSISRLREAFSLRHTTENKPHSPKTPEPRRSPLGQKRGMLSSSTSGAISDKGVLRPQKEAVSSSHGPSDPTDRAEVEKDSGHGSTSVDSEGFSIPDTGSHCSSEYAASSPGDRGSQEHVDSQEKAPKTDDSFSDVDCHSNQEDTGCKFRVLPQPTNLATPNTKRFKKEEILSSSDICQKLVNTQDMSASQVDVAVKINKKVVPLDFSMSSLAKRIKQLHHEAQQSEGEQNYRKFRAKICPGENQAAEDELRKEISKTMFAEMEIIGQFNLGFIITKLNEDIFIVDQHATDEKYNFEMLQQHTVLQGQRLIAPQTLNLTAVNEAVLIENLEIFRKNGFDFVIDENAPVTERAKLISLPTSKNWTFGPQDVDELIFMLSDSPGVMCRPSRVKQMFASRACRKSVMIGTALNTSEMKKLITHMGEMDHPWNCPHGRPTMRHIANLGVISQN",
  "experiment": "DNA mismatch repair (MMR) complementation assay with peptide, MLH1-ΔConMot variant",
  "type": "biochemical",
  "procedure": "Mismatch repair activity was assessed as described in detail before ([79],[81]) (Supplementary Figure S3). […] Mismatched DNA plasmid substrate (Supplementary Figure S3) prepared according to previously published procedures ([81–83]) was added, and reactions in a final volume of 25 μl were incubated at 37°C for 15 min. Repair efficiency was scored by purifying the mismatched DNA plasmid from the reaction and assessing the fraction of homoduplex sequence by restriction digestion of the mismatched site using EcoRV. The substrate was additionally linearized with AseI.\nFor complementation assays with peptide, the indicated peptide(s) were used at stock concentrations of 50 or 500 μM in HEPES–KOH 20 mM pH 7.6 and supplemented to the MMR reactions.\nFigure 4. Reaction of DNA mismatch repair to addition of ConMot peptide. (A) Nuclear extract of MLH1-proficient HEK293 cells was used for performing the DNA mismatch repair reaction. Four reactions were undertaken, with two reactions supplemented with either 7.5 μM or 75 μM ConMot-32 peptide. A negative control reaction was performed by omitting the 37°C repair incubation. (B) MMR reactions were performed with nuclear extract of MLH1-deficient HEK293T cells supplemented with extract of cells transfected either with wildtype MLH1-PMS2 (positive control) or with MLH1-ΔConMot-PMS2. To these MMR reactions, different peptides were added at a concentration of 75 μM: A ConMot-32 peptide (A), a Scramble-32 peptide (B) in which the conserved ConMot sequence is scrambled, and a short ConMot-20 peptide (C) that only contains the twenty highly conserved ConMot residues. The peptide sequences are given below the gel image. (C) The concentration-dependence of the MMR-activating effect of the ConMot-32 peptide observed in (B) was measured over a concentration range from 1–75 μM. (D) Theoretical binding curves of a ligand (peptide) to a protein were calculated for dissociation constants (KD) of 1, 5 and 10 μM for a protein concentration as present for MLH1-PMS2 in the MMR assay reactions (see also Supplementary Figure S3). Into this diagram, the average MMR activities (and standard deviations) measured in >3 of the experiment exemplarily shown in C were introduced as bars at ConMot-32 peptide concentrations of 1, 2.5, 7.5, 18 and 75 μM.\nSecond, we used extract of the repair-deficient cell line HEK293T supplemented with either wildtype MutLα (MLH1-PMS2) or the ΔConMot deletion variant, corresponding to experiment shown in Figure 2B. In this experiment, we again added ConMot peptide.\nWe investigated the effect of the ConMot peptide more closely by titrating the required peptide concentrations for activation. We determined that the mismatch repair reactions performed in this study contained approximately 280 fmol MLH1 (Supplementary Figure S4A and B), which is in good agreement with previous quantifications of MLH1-PMS2 in cells and extracts ([96]). […] Dissociation constants (KD) for peptides to proteins are typically in the range of 1–10 μM ([97]). We compared the measured concentration-dependent MMR activities with theoretical binding curves of (peptide) ligands to (protein) substrates for KD values of 1, 5 and 10 μM (Supplementary Figure S4C) at the determined MLH1 concentration. […] It is therefore plausible that a binding reaction of the ConMot peptide (to a protein) underlies the restauration of MMR activity. […]\nDeletion C on M ot (∆Co nMot) c.1129_1188del CTGCAGCCTCTGAGCAAA […]\nDel et i on comp are (∆Compare) c.1221_1280del […] ACTGGACAGGGGTTTGCT\nScramble c.1147_1160delinsGAC ggtacgtTCCCGGGAACAGAAGCT atagtgtcCTGGTGGGCATAGACCT\np.(M383_D387delinsDTMVR) ACTATGGTAC G T TATC\nConMot hy bri d gcataTCTGCAGCCTCTGAGCAA acagg[…]\nSupplementary Table 1: Analyzed variant inf ormation.\nVariant descriptions confer to HGVS format and refer to the MLH1 reference cDNA (NM_000249.4) […]",
  "key": {"[1]": {"conditions": "ConMot-32, concentration range 1–75 μM, approximately 280 fmol MLH1 (11.1 nM), 37°C, 15 min, >3 experiments"}},
  "note": "“Also recorded” adds a separate entry of the source. No end group written: not given here.",
  "data": [
    {"sequence": "SGSSDKVYAHQMVRTDSREQKLDAFLQPLSKP [ConMot-32]", "values": [
      {"measurement": "peptide concentration at which almost complete activation was achieved (MMR)", "setting": "[1]", "result": 75, "unit": "µM"},
      {"measurement": "peptide concentration at which increase in MMR activity became detectable", "setting": "[1]", "result": 1, "unit": "µM"},
      {"measurement": "EC50", "setting": "ConMot-32, concentration range 1–75 μM, approximately 280 fmol MLH1 (11.1 nM), 37°C, 15 min, >3 experiments, read-out: peptide concentration at which 50% activation was achieved (MMR)", "result": 7.5, "unit": "µM"},
      {"measurement": "effect of peptide on MMR (summary in Supplementary Table 2)", "setting": "molar ratio 0-860-2300-8600 to hMLH1-PMS2, Tris-HCl pH 7.5, 5 mM Mg2+, 1.5 mM ATP", "result": "activating"},
      {"measurement": "restoration of DNA mismatch repair activity of the ΔConMot variant", "setting": "peptide 75 μM (Figure 4B), HEK293T nuclear extract 50 μg + 5 μg transfected extract, 25 μl, 37°C, 15 min, EcoRV/AseI digestion, agarose gel, listed as ConMot-peptide", "result": "could be overcome; also recorded: possible to overcome the MMR-deficiency"}
    ]}
  ]
}
